Assay results as given in patent US20050008558A1, “Fullerene derivatives and processes for producing the same” (Eiichi NAKAMURA, priority 2003, published 2005).
Values after ≈ are worked out from the molar mass of the structure shown.

Key:
[1] = Oxidation test: toluene solutions allowed to stand in air at room temperature, HPLC peak area ratio; assay type: physicochemical; details: for Peak area ratio (%) of starting compound to whole peak area: toluene solution 0.33 mg/mL, in air, HPLC UV 290 nm, time 0 day (initial); for Change in peak area ratio on preservation as a solution (in words): long period of time
Description: The stability in air of the fullerene derivatives of the present invention may be confirmed, for example, by analyzing the change in quality thereof with time by HPLC. More specifically, the stability in air can be determined as follows. That is, a toluene solution of the fullerene derivatives of the present invention which is allowed to stand in air at room temperature, is subjected to HPLC using an octadecyl-bonded silica gel column (hereinafter referred to merely as “ODS” column), an eluent composed of toluene and methanol and a UV wavelength of 290 nm to measure the rate of reduction in area ratio of a peak attributed to the fullerene derivatives to whole peaks as observed. Concretely, it can be evaluated by the stability in air of solution of fullerene derivative according to the present invention to the solution of same fullerene derivative to the present one except for having a hydrogen atom on cyclopentadiene ring of fullerene skeleton, for example, a C60Ph5CH3 solution to a C60Ph5H solution (Ph represents a phenyl group). For example, the rate of reduction in peak area ratio of the fullerene derivatives according to the present invention is usually 1/20 or lower, preferably 1/100 or lower than that of the case where one having a hydrogen atom on cyclopentadiene ring, namely C60Ph5H, is used under the same conditions.
90 mL of a toluene solution of C60Ph5H (0.33 mg/mL) and 90 mL of a toluene solution of C60Ph5Me obtained in Example 10 (0.33 mg/mL) were respectively prepared and allowed to stand in air at room temperature. The prepared solutions were sampled in an amount of 0.5 mL for each every several days, and subjected to HPLC analysis to examine the change in quality thereof with time. The HPLC analysis conditions were ODS; column size: 150 mm×4.6 mmφ; eluent: toluene/methanol=4/6; flow rate: 1.0 mL/min; detector used: UV 290 nm.

[2] = Solubility in organic solvents at 25° C.
[3] = toluene solution in air, time 1 day
[4] = toluene solution in air, time 2 days
[5] = toluene solution in air, time 6 days
[6] = toluene solution in air, time 8 days
[7] = toluene solution in air, time 9 days
[8] = toluene solution in air, time 14 days
[9] = toluene solution in air, time 15 days
[10] = toluene solution in air, time 16 days
[11] = toluene solution in air, time 20 days
[12] = toluene solution in air, time 22 days
[13] = toluene solution in air, time 23 days
[14] = toluene solution in air, time 63 days

Row | SMILES | Peak area ratio (%) of starting compound to whole peak area [1] | Change in peak area ratio on preservation as a solution (in words) ([1]; toluene solution in air) | Peak area ratio (%) [1, 3] | Peak area ratio (%) [1, 4] | Peak area ratio (%) [1, 5] | Peak area ratio (%) [1, 6] | Peak area ratio (%) [1, 7] | Peak area ratio (%) [1, 8] | Peak area ratio (%) [1, 9] | Peak area ratio (%) [1, 10] | Peak area ratio (%) [1, 11] | Peak area ratio (%) [1, 12] | Peak area ratio (%) [1, 13] | Peak area ratio (%) [1, 14] | further results
1 | c1ccc(C23C4=C5C6C7=C4C4(c8ccccc8)c8c2c2c9c3c3c%10c%11c(c%12c%13c%14c(c%15c%16c%17c(c4c4c8c8c2c2c%18c9c%10c9c%10c%11c%13c%11c%13c%14c%16c%14c%16c%17c4c4c8c2c2c(c%189)c(c%10%11)c(c%14%13)c2c4%16)C7%15c2ccccc2)C%126c2ccccc2)C53c2ccccc2)cc1 (stereo not shown) [Example C60Ph5H] | 98.5% | considerable reduction in peak area ratio | 97.5% | 96.7% | 94.4% | 93.2% | 92.9% | 90.6% | 90.1% | 89.6% | 88.6% | 87.4% | 87.4% | 70.1% | Rate of reduction of the peak area ratio ([1]; toluene solution in air): about 0.45 % per day; Peak area ratio (%) ([1]; toluene solution in air, time 5 days): 95.0%; Peak area ratio (%) ([1]; toluene solution in air, time 12 days): 92.0%; Peak area ratio (%) ([1]; toluene solution in air, time 13 days): 91.7%; Peak area ratio (%) ([1]; toluene solution in air, time 26 days): 85.9%; Peak area ratio (%) ([1]; toluene solution in air, time 30 days): 84.3%; Peak area ratio (%) ([1]; toluene solution in air, time 33 days): 81.5%; Peak area ratio (%) ([1]; toluene solution in air, time 37 days): 80.4%; Peak area ratio (%) ([1]; toluene solution in air, time 43 days): 78.9%; Peak area ratio (%) ([1]; toluene solution in air, time 51 days): 74.1%; Peak area ratio (%) ([1]; toluene solution in air, time 58 days): 71.4%; Peak area ratio (%) ([1]; toluene solution in air, time 65 days): 70.1%
2 | CC12C3=C4C5=C1C1(c6ccccc6)c6c7c8c9c(c%10c%11c%12c(c%13c%14c%15c(c%16c%17c%18c(c1c1c6c6c8c8c%19c9c%11c9c%11c%12c%14c%12c%14c%15c%17c%15c%17c%18c1c1c6c8c6c(c9%19)c(c%11%12)c(c%14%15)c6c1%17)C%162c1ccccc1)C3%13c1ccccc1)C4%10c1ccccc1)C57c1ccccc1 (stereo not shown) [Example C60Ph5Me, 1-methyl-6,9,12,15,18-pentaphenyl-1,6,9,12,15,18-hexahydro-(C60-Ih)[5,6]fullerene] | 98.8% | kept substantially unchanged | 98.4% | 98.9% | 98.4% | 98.7% | 98.5% | 98.3% | 98.9% | 98.4% | 98.4% | 97.1% | 97.4% | 98.3% | Peak area ratio (%) ([1]; toluene solution in air, time 3 days): 98.8%; Peak area ratio (%) ([1]; toluene solution in air, time 7 days): 98.3%; Peak area ratio (%) ([1]; toluene solution in air, time 10 days): 98.0%; Peak area ratio (%) ([1]; toluene solution in air, time 21 days): 98.4%; Peak area ratio (%) ([1]; toluene solution in air, time 25 days): 98.5%; Peak area ratio (%) ([1]; toluene solution in air, time 31 days): 97.9%; Peak area ratio (%) ([1]; toluene solution in air, time 38 days): 98.2%; Peak area ratio (%) ([1]; toluene solution in air, time 48 days): 98.1%
3 | CCOC(=O)CCCC12C3=C4C5=C1C1(C)c6c7c8c9c(c%10c%11c%12c(c%13c%14c%15c(c%16c%17c%18c(c1c1c6c6c8c8c%19c9c%11c9c%11c%12c%14c%12c%14c%15c%17c%15c%17c%18c1c1c6c8c6c(c9%19)c(c%11%12)c(c%14%15)c6c1%17)C%162C)C3%13C)C4%10C)C57C (stereo not shown) [C60Me5—(CH2)3CO2Et, 1-(3-(ethoxycarbonyl)propyl)-6,9,12,15,18-pentamethyl-1,6,9,12,15,18-hexahydro-(C60-Ih)[5,6]fullerene] |  |  |  |  |  |  |  |  |  |  |  |  |  |  | Solubility in chloroform (CHCl3) ([2]; CHCl3, 25° C.): 35.9 mg/mL (≈ 39.4 mM); Solubility in N,N-dimethylformamide (DMF) ([2]; DMF, 25° C.): 15.4 mg/mL (≈ 16.9 mM); Solubility in ethyl acetate (EtOAc) ([2]; EtOAc, 25° C.): 3.9 mg/mL (≈ 4.28 mM); Solubility in tetrahydrofuran (THF) ([2]; THF, 25° C.): 103.0 mg/mL (≈ 113 mM)
